Biological target: T1, soybean lipoxygenase (lipoxygenase type I-B) (Glycine max, UniProt P08170)
T1 construct: gene LOX1.1
T1 sequence (P08170 1-839): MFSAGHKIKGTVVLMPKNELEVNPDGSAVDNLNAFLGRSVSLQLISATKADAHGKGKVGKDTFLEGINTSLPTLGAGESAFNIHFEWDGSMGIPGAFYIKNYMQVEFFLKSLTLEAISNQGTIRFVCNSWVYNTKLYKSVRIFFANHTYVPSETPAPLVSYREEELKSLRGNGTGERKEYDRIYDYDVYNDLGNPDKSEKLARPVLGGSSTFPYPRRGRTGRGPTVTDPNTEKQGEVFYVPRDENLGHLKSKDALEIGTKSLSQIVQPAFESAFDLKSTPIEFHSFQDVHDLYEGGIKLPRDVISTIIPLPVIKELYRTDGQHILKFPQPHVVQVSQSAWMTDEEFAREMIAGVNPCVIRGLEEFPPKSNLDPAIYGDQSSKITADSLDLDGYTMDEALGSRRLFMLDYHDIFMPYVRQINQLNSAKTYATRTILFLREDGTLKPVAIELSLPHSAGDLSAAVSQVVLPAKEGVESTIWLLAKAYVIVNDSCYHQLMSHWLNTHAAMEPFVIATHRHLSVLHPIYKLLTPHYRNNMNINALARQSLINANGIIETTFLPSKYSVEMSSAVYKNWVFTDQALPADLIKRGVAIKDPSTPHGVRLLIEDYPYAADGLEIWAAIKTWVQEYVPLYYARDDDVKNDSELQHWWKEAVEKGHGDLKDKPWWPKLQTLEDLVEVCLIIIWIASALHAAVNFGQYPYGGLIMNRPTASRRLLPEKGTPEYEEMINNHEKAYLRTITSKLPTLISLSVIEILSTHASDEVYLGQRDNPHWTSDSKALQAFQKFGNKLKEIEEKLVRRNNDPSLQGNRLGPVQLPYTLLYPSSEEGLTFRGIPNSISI
Experiment: linoleate oxidation at […] nm, % inhibition at […] μΜ
Format: biochemical
Conditions: read-out: % Inhibition (LOX)

## CCOC(=O)C1CCCN(C(=O)c2cc(C(C)(C)C)c(O)c(C(C)(C)C)c2)C1 (centres unmarked) [compound 1, Ethyl 1-(3,5-di-tert-butyl-4-hydroxybenzoyl)piperidine-3-carboxylate]
  inhibition at 100 µM: 31%

## CCOC(=O)C1CCCN(C(=O)/C=C/c2cc(C(C)(C)C)c(O)c(C(C)(C)C)c2)C1 (centres unmarked) [compound 2, (E)-Ethyl 1-(3-(3,5-di-tert-butyl-4-hydroxyphenyl)acryloyl)piperidine-3-carboxylate]
  inhibition at 100 µM: 33%
